Assay results reported in PMC8037530, “Synthesis and Hybrid SAR Property Modeling of Novel Cholinesterase Inhibitors” (International Journal of Molecular Sciences, 2021).
Like-named read-outs stand apart in the source and are kept apart here.

Experiments:
[1] = Determination of lipophilicity by RP-HPLC (capacity factor k); assay type: physicochemical; details: C18, isocratic MeOH 72%/H2O 28%, 40 °C
Experimental: The lipophilicity of all the target compounds was investigated by means of RP-HPLC determination of capacity factors k with a subsequent calculation of log k. The retention times of individual compounds were determined under isocratic conditions with methanol as an organic modifier in the mobile phase using end-capped non-polar C18 stationary RP columns.
The HPLC separation system Agilent 1200 series equipped with a DAD SL (Agilent Technologies) was used. A chromatographic column Symmetry® C18 5 μm, 4.6 × 250 mm, Part No. W21751W016 (Waters Corp., Milford, MA, USA) was applied. The HPLC separation process was monitored by the ChemStation for LC 3D chromatography software (Agilent Technologies). Isocratic elution by a mixture of MeOH p.a. (72%) and H2O-HPLC Mili-Q grade (28%) as a mobile phase was used for the determination of the capacity factor k. The total flow of the column was 1.0 mL/min, injection 20 μL, column temperature 40 °C, and sample temperature 10 °C. The detection wavelength of 210 nm was chosen. A KI methanolic solution was used for the determination of the dead times (tD). Retention times (tR) were measured in minutes. The capacity factors k were calculated according to the formula k = (tR − tD)/tD, where tR is the retention time of the solute and tD is the dead time obtained using an unretained analyte. Each experiment was repeated three times.

[2] = target: T1, AChE from electric eel (Electrophorus electricus) (Electrophorus electricus, UniProt O42275); assay: In vitro AChE inhibition, modified Ellman's method; assay type: biochemical
T1 construct: purchased Sigma, St. Louis, MO, USA
T1 sequence (O42275 24-633): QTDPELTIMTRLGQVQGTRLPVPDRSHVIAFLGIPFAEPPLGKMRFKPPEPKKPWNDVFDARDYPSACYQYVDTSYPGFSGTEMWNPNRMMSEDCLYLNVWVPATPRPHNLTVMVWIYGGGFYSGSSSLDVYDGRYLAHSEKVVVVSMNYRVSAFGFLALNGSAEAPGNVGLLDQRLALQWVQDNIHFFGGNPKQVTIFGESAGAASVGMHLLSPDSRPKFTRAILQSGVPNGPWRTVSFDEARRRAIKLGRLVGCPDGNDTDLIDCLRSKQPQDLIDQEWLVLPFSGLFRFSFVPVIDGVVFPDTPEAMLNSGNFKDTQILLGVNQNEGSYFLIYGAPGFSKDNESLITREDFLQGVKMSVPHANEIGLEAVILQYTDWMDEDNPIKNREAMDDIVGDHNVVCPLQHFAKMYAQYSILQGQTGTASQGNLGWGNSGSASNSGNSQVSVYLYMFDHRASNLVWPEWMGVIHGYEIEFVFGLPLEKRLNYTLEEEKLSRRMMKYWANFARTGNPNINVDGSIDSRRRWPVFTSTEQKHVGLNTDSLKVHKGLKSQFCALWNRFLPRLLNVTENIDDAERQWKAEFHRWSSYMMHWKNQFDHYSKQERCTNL
Experimental: (§1) The ability of all the prepared compounds to inhibit AChE from electric eel (Electrophorus electricus) and BChE from equine serum (both purchased from Sigma, St. Louis, MO, USA) was determined in vitro using a modified Ellman’s method, as described in detail elsewhere. This is a simple, rapid, and direct method to determine the SH and -S-S- group content in proteins. The enzyme activity is measured indirectly by quantifying the concentration of the 5-thio-2-nitrobenzoic acid ion formed in the reaction between the thiol reagent 5,5’-dithiobis-2nitrobenzoic acid (DTNB) and thiocholine, which is a product of acetylthiocholine hydrolysis catalyzed by cholinesterases. The effectiveness of the tested inhibitors is expressed as the IC50 values.
(§2) The enzyme activity in the final reaction mixture (2 mL) was 0.2 U/mL, the concentration of the substrate (acetylthiocholine or butyrythiocholine) was 40 µM, and the concentration of DTNB was 0.1 mM for all reactions. All reactions were carried out at 25 °C in the presence of phosphate-buffered saline (0.1 M, pH 7.4) in a glass cuvette with a 1 cm optical path. All the studied inhibitors were dissolved in DMSO (concentration 0.01 M) and then diluted in demineralized water as necessary. […] All measurements were carried out in triplicate, and the average values of the reaction rate (v0—reaction in the absence of the inhibitor, vi—reaction in the presence of the inhibitor) were used for construction of the dependence v0/vi vs. concentration of the inhibitor.

BChE from equine serum = target: T2, BChE from equine serum (Equus caballus, UniProt P81908); assay: In vitro BChE inhibition, modified Ellman's method; assay type: biochemical; details: for SI (index selectivity) = IC50 (AChE)/IC50 (BChE): ratio IC50 AChE/IC50 BChE
T2 construct: BChE from equine serum; purchased Sigma, St. Louis, MO, USA; host or cells: equine serum
T2 sequence (P81908 whole entry): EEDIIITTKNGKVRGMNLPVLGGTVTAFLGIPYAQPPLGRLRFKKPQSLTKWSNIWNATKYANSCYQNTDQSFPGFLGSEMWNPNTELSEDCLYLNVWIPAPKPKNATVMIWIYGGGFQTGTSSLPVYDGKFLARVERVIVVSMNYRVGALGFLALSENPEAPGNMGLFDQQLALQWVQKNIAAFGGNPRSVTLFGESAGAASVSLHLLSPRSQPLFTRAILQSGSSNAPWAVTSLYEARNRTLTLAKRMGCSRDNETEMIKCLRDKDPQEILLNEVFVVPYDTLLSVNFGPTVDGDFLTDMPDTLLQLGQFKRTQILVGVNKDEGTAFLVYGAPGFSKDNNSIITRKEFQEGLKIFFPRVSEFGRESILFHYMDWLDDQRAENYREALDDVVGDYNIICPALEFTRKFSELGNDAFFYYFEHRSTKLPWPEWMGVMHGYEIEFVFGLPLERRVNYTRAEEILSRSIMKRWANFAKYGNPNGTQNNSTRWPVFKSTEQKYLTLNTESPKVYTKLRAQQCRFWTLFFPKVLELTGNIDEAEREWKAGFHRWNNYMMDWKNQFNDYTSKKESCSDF
Experimental: as §1, §2

[3] = mean ± SD, n = 3, electric eel AChE, 25 °C, pH 7.4, read-out: IC50 AChE

| Structure (SMILES) | log k [1] | IC50 [2] [µM] | IC50 (BChE from equine serum) [µM] | SI (index selectivity) = IC50 (AChE)/IC50 (BChE) (BChE from equine serum) | IC50 [2, 3] [µM] | IC50 (BChE from equine serum; mean ± SD, n = 3, equine serum BChE, 25 °C, pH 7.4, read-out: IC50 BChE) [µM] |
| --- | --- | --- | --- | --- | --- | --- |
| O=C(Nc1ccc(C(=O)Nc2cc(F)c(F)c(F)c2)c(O)c1)OCc1ccccc1 [Compound 29, Benzyl{3-hydroxy-4-[(3,4,5-trifluorophenyl)carbamoyl]phenyl}carbamate] | 0.5169 | 62.3 ± 0.75 | 183.7 ± 0.75 | 0.34 | – | – |
| O=C(Nc1ccc(C(=O)Nc2ccc(Cl)cc2)c(O)c1)OCc1ccccc1 [Compound 11, Benzyl{4-[(4-chlorophenyl)carbamoyl]-3-hydroxyphenyl}carbamate] | 0.6399 | 78.2 ± 1.58 | 139 ± 6.86 | 0.56 | – | – |
| O=C(Nc1ccc(C(=O)Nc2ccc(F)cc2)c(O)c1)OCc1ccccc1 [Compound 8, Benzyl{4-[(4-fluorophenyl)carbamoyl]-3-hydroxyphenyl}carbamate] | 0.3924 | 47.4 ± 0.61 | 105.8 ± 0.43 | 0.45 | – | – |
| COc1ccc(NC(=O)c2ccc(NC(=O)OCc3ccccc3)cc2O)cc1 [Compound 4, Benzyl{3-hydroxy-4-[(4-methoxyphenyl)carbamoyl]phenyl}carbamate] | 0.1176 | 57.49 ± 0.08 | 154 ± 6.09 | 0.37 | – | – |
| O=C(Nc1ccc(C(=O)Nc2ccc(F)cc2F)c(O)c1)OCc1ccccc1 [Compound 17, Benzyl{4-[(2,4-difluorophenyl)carbamoyl]-3-hydroxyphenyl}carbamate] | 0.1912 | 79.2 ± 1.27 | 180 ± 7.04 | 0.44 | – | – |
| O=C(Nc1ccc(C(=O)Nc2cccc(Cl)c2Cl)c(O)c1)OCc1ccccc1 [Compound 21, Benzyl{4-[(2,3-dichlorophenyl)carbamoyl]-3-hydroxyphenyl}carbamate] | 0.5497 | 88.8 ± 1.42 | 248 ± 14.9 | 0.36 | – | – |
| O=C(Nc1ccc(C(=O)Nc2c(Cl)cc(Cl)cc2Cl)c(O)c1)OCc1ccccc1 [Compound 31, Benzyl{3-hydroxy-4-[(2,4,6-trichlorophenyl)carbamoyl]phenyl}carbamate] | 0.3679 | 93.1 ± 1.8 | 57.1 ± 1.72 | 1.63 | – | – |
| O=C(Nc1ccc(C(=O)Nc2ccccc2Cl)c(O)c1)OCc1ccccc1 [Compound 9, Benzyl{4-[(2-chlorophenyl)carbamoyl]-3-hydroxyphenyl}carbamate] | 0.5188 | 41.86 ± 0.15 | 140.1 ± 0.35 | 0.30 | – | – |
| O=C(Nc1ccc(C(=O)Nc2ccc(Br)cc2Br)c(O)c1)OCc1ccccc1 [Compound 26, Benzyl{4-[(2,4-dibromophenyl)carbamoyl]-3-hydroxyphenyl}carbamate] | 0.7366 | 94.9 ± 0.97 | 262 ± 5.1 | 0.36 | – | – |
| O=C(Nc1ccc(C(=O)Nc2ccc(C(F)(F)F)cc2)c(O)c1)OCc1ccccc1 [Compound 14, Benzyl(3-hydroxy-4-{[4-(trifluoromethyl)phenyl]carbamoyl}phenyl)carbamate] | 0.7408 | 71.4 ± 5.04 | 137 ± 21.9 | 0.52 | – | – |
| O=C(Nc1ccc(C(=O)Nc2ccccc2OC(F)(F)F)c(O)c1)OCc1ccccc1 [Compound 15, Benzyl(3-hydroxy-4-{[2-(trifluoromethoxy)phenyl]carbamoyl}phenyl)carbamate] | 0.6227 | 36 ± 1.48 | 44.3 ± 0.87 | 0.81 | – | – |
| O=C(Nc1ccc(C(=O)Nc2c(Br)cc(Br)cc2Br)c(O)c1)OCc1ccccc1 [Compound 32, Benzyl{3-hydroxy-4-[(2,4,6-tribromophenyl)carbamoyl]phenyl}carbamate] | 0.4427 | 65.9 ± 2.81 | 56 ± 0.58 | 1.18 | – | – |
| COc1cccc(NC(=O)c2ccc(NC(=O)OCc3ccccc3)cc2O)c1 [Compound 3, Benzyl{3-hydroxy-4-[(3-methoxyphenyl)carbamoyl]phenyl}carbamate] | 0.1280 | 69.3 ± 2 | 362 ± 8.12 | 0.19 | – | – |
| O=C(Nc1ccc(C(=O)Nc2cc(F)cc(F)c2)c(O)c1)OCc1ccccc1 [Compound 20, Benzyl{4-[(3,5-difluorophenyl)carbamoyl]-3-hydroxyphenyl}carbamate] | 0.4072 | 67.4 ± 5.24 | 208 ± 5.3 | 0.32 | – | – |
| O=C(Nc1ccc(C(=O)Nc2ccccc2OC(F)(F)F)c(O)c1)OCc1ccccc1 | – | – | – | – | 36.1 | – |
| O=C(Nc1ccc(C(=O)Nc2cccc(Cl)c2)c(O)c1)OCc1ccccc1 [Compound 10, Benzyl{4-[(3-chlorophenyl)carbamoyl]-3-hydroxyphenyl}carbamate] | 0.6411 | 61.6 ± 1.74 | 204 ± 7.49 | 0.30 | – | – |
| O=C(Nc1ccc(C(=O)Nc2cccc(F)c2F)c(O)c1)OCc1ccccc1 [Compound 16, Benzyl{4-[(2,3-difluorophenyl)carbamoyl]-3-hydroxyphenyl}carbamate] | 0.4705 | 62.4 ± 1.42 | 200 ± 7 | 0.31 | – | – |
| O=C(Nc1ccc(C(=O)Nc2cc(F)ccc2F)c(O)c1)OCc1ccccc1 [Compound 18, Benzyl{4-[(2,5-difluorophenyl)carbamoyl]-3-hydroxyphenyl}carbamate] | 0.4012 | 58.31 ± 0.2 | 157 ± 3.11 | 0.37 | – | – |
| O=C(Nc1ccc(C(=O)Nc2ccccc2F)c(O)c1)OCc1ccccc1 [Compound 6, Benzyl{4-[(2-fluorophenyl)carbamoyl]-3-hydroxyphenyl}carbamate] | 0.3577 | 50.07 ± 0.06 | 70.8 ± 5.61 | 0.71 | – | – |
| O=C(Nc1ccc(C(=O)Nc2c(Cl)cccc2Cl)c(O)c1)OCc1ccccc1 [Compound 23, Benzyl{4-[(2,6-dichlorophenyl)carbamoyl]-3-hydroxyphenyl}carbamate] | 0.8125 | 76.74 ± 0.74 | 117.6 ± 1.11 | 0.65 | – | – |
| O=C(Nc1ccc(C(=O)Nc2c(F)cccc2F)c(O)c1)OCc1ccccc1 [Compound 19, Benzyl{4-[(2,6-difluorophenyl)carbamoyl]-3-hydroxyphenyl}carbamate] | -0.1205 | 64.3 ± 4.74 | 42.9 ± 2.13 | 1.50 | – | – |
| O=C(Nc1ccc(C(=O)Nc2cc(C(F)(F)F)cc(C(F)(F)F)c2)c(O)c1)OCc1ccccc1 [Compound 27, Benzyl{4-[(3,5-di(trifluoromethyl))carbamoyl]-3-hydroxyphenyl}carbamate] | 0.9667 | – | – | 0.41 | 59.4 ± 3.38 | 146 ± 2.65 |
| O=C(Nc1ccc(C(=O)Nc2ccccc2C(F)(F)F)c(O)c1)OCc1ccccc1 [Compound 12, Benzyl(3-hydroxy-4-{[2-(trifluoromethyl)phenyl]carbamoyl}phenyl)carbamate] | 0.4318 | 56.4 ± 1.26 | 33.6 ± 0.71 | 1.68 | – | – |
| O=C(Nc1ccc(C(=O)Nc2ccccc2)c(O)c1)OCc1ccccc1 [Compound 1, Benzyl[3-hydroxy-4-(phenylcarbamoyl)phenyl]carbamate] | 0.1160 | 65.2 ± 2.24 | 175 ± 5.85 | 0.37 | – | – |
| O=C(Nc1ccc(C(=O)O)c(O)c1)OCc1ccccc1 [CbzPAS, 4-{[(Benzyloxy)carbonyl]amino}-2-hydroxybenzoic acid, reference compound] | – | 58.1 ± 1.04 | 137 ± 21.8 | 0.42 | – | – |
